{"source": "paper PMC6397271", "about": "(Scientific Reports, 2019)", "key": {"[1]": {"assay": "Brain concentration by LC/MS after iv administration", "assay_type": "in vivo, BALB/c male mice", "settings": "iv, 2 h, LC/MS of brain homogenate", "method": "In vivo experiments were performed on BALB/c male mice weighing between 20 and 30 g (the mouse model is widely used for estimation of drug BBB penetration). The animals (obtained from TAZD-CBU) were kept in a 12-hour day and night cycle at room temperature (20–22 °C), humidity 55–56% and fed with a standard diet and water ad libitum for at least 1 week before the experiment. Body temperature and weight were recorded on a regular daily schedule. It is confirmed that all procedures were carried out according to the guidelines outlined by the European Community Council Directive 2010/63/EEC, and they were approved by the local Ethical Committee Resolution 26/2014 (Bydgoszcz, Poland).\nThe experiments in this section also involved the mouse model described above. […] Similarly to what was stated previously, the mice were sacrificed 2 hours after the administration of the compounds. Their brains were removed immediately from the cranium and weighed. Next, they were homogenized mechanically in the ice and frozen at −80 °C.\nEach homogenized mouse brain was centrifuged at 15 000 × g for 10 min. The supernatant was diluted with deionised water (Millipore), filtered (PTFE 0.22 μm filter) and analyzed by UHPLC-ESI/MS with the use of Shimadzu Nexera X2 UHPCL chromatograph and Shimadzu LCMS-2020 mass detector. […]"}, "[2]": {"tested_on": "intracellular MRSA 12673 strain in HEK293 cells", "assay": "Intracellular antimicrobial (infection) assay", "assay_type": "cell-based, Staphylococcus aureus", "settings": "MRSA-infected HEK293 cells, 25 µM, 24 h", "method": "HEK293 (human embryonic kidney) cells were purchased form Cell Line Services (Germany). The cells were cultured in Dulbecco’s Modified Eagle’s (DMEM) medium with 4.5 g/l glucose (Sigma-Aldrich, Germany), supplemented with 10% fetal bovine serum (FBS, Sigma-Aldrich, Germany) and 1% PEN/STREP (Sigma-Aldrich, Germany). Cells were maintained in a 5% CO2 incubator at 37 °C. The original lines were checked for the presence of mycoplasma.\nHEK293 cells were seeded at a density of 1.5 × 10^5 cells/well in 24-well plates in an antibiotic-free medium (DMEM + 10% FBS) and were allowed to adhere overnight. Next, the medium was removed and overnight culture of S. aureus strain (12673) suspended in DMEM + 1% FBS (invasive medium) at a ratio of bacteria/cells 25:1 was added. To enable bacterial invasion, the cells were incubated with bacterial suspensions (37 °C, 5% CO2) for 2 h.\nAfter this period of time extracellular bacteria were eliminated by a 30 min incubation with 20 U/ml lysostaphin. […] The lysis of human cells was carried out with 0.2% Trition-X-100 (Sigma-Aldrich, Germany). The obtained cell lysates were serially diluted in PBS and plated on agar plates and CFU/ml was determined.\nThe results are presented as the percentage of S. aureus intracellular survival after treatment in comparison to that of non-treated cells (control). The assay was performed in triplicates."}, "[3]": {"tested_on": "S.aureus MRSA hetero-VISA 6347", "assay": "microbe, parasite or virus in culture", "assay_type": "cell-based, Staphylococcus aureus", "settings": "TP10 alone", "method": "(§1) To find out MICA(with B) and MICB(with A) a checkerboard assay was carried out in 96-well microtiter plates (each test was performed in triplicates). […] Each well in a 96-well plate was inoculated with 100 µL of bacterial inoculum of 1 × 10^5 CFU/mL. For this purpose only bacterial strains of MRSA (N315, 12673 and 6347) were used. Next, the plates were incubated at 37 °C for 24 h.\n(§2) FIC index (FICI) is the sum of FICA and FICB. The interpretation of the calculated FICIs is in accordance to the following principle: FICI ≤ 0.5 synergy; FICI > 0.5 and ≤4 indifference (no interaction); FICI > 4, antagonism."}, "S.aureus MRSA N315": {"tested_on": "S.aureus MRSA N315", "assay": "microbe, parasite or virus in culture", "assay_type": "cell-based, Staphylococcus aureus", "settings": "TP10 alone", "method": "as §1, §2"}, "S.aureus MRSA 12673": {"tested_on": "S.aureus MRSA 12673", "assay": "microbe, parasite or virus in culture", "assay_type": "cell-based, Staphylococcus aureus", "settings": "TP10 alone", "method": "as §1, §2"}, "[4]": {"tested_on": "Enterococcus faecium 3934825", "assay": "microbe, parasite or virus in culture", "assay_type": "cell-based", "settings": "microbroth dilution, 96-well, resazurin, 37 °C, 24 h; mean ± SD, at least three independent experiments in triplicates", "excerpt": "(§3) Three bacterial strains of MRSA (N315, 12673, 6347) and two of Enterococcus spp. (E. faecium, E. faecalis) were used. With respect to MRSA, N315 represented a reference Van-susceptible strain (GenBank GCA_00000645.1) isolated from a patient while 12673 (Van-intermediately susceptible) and 6347 (a h-VISA which appears at frequency of <10^−5 to 10^−6 is composed of two subpopulations of bacteria: one susceptible and one intermediately resistant)[38] were clinical strains obtained from patients of The Clinical University Centre of Gdańsk (UCK). […] The clinical strain isolates originated from the collection of the Department of Pharmaceutical Technology and Biochemistry, Faculty of Chemistry, Gdańsk University of Technology.\n(§4) The strains were grown in Mueller-Hinton broth (MH cation-adjusted, Becton Dickinson) or Brain Heart Infusion broth (BHI, Becton Dickinson), respectively. The cultivation was carried out in an aerobic atmosphere at 37 °C for 24 hours and, afterwards, the bacterial cultures were diluted in geometric progression with a proper broth. Next, 100 µl of each dilution was inoculated in an agar plate and incubated at 37 °C for 24 h. The next procedures included determination of Colony Forming Units (CFU)/ml and minimal inhibitory concentration (MIC) of the compounds in question. The latter procedure was carried out according to the microbroth dilution technique using 96-well plates. The MICs were evaluated by using the metabolic assay based on the resazurin dye. The assay was performed in triplicates."}, "[5]": {"tested_on": "Enterococcus faecalis 3937158", "assay": "microbe, parasite or virus in culture", "assay_type": "cell-based", "settings": "microbroth dilution, 96-well, resazurin, 37 °C, 24 h; mean ± SD, at least three independent experiments in triplicates", "excerpt": "as §3, §4"}, "S. aureus MRSA 12673": {"tested_on": "S. aureus MRSA 12673", "assay": "microbe, parasite or virus in culture", "assay_type": "cell-based, Staphylococcus aureus", "settings": "microbroth dilution, 96-well, resazurin, 37 °C, 24 h; mean ± SD, at least three independent experiments in triplicates", "excerpt": "as §3, §4"}, "[6]": {"tested_on": "S. aureus MRSA hetero-VISA 6347", "assay": "microbe, parasite or virus in culture", "assay_type": "cell-based, Staphylococcus aureus", "settings": "microbroth dilution, 96-well, resazurin, 37 °C, 24 h; mean ± SD, at least three independent experiments in triplicates", "excerpt": "as §3, §4"}, "S. aureus MRSA N315": {"tested_on": "S. aureus MRSA N315", "assay": "microbe, parasite or virus in culture", "assay_type": "cell-based, Staphylococcus aureus", "settings": "microbroth dilution, 96-well, resazurin, 37 °C, 24 h; mean ± SD, at least three independent experiments in triplicates", "excerpt": "as §3, §4"}}}
{"smiles": "CC[C@H](C)[C@H](NC(=O)[C@H](CCCCN)NC(=O)[C@H](CCCCN)NC(=O)[C@H](C)NC(=O)[C@H](CC(C)C)NC(=O)[C@H](C)NC(=O)[C@H](C)NC(=O)[C@H](CC(C)C)NC(=O)[C@H](C)NC(=O)[C@H](CCCCN)NC(=O)[C@H](CC(C)C)NC(=O)[C@H](CC(N)=O)NC(=O)[C@@H](NC(=O)[C@H](CCCCN)NC(=O)CNC(=O)[C@H](CC(C)C)NC(=O)[C@H](CC(C)C)NC(=O)[C@H](Cc1ccc(O)cc1)NC(=O)CNC(=O)[C@H](C)N)[C@@H](C)CC)C(=O)N[C@@H](CC(C)C)C(N)=O", "note": "[TP10, transportan 10, reference compound]", "values": [{"measurement": "access to the brain / BBB penetration (in words)", "setting": "[1]", "result": "did not gain access to the brain"}, {"measurement": "intracellular MRSA killed (bacterial killing rate)", "setting": "[2]", "result": 26, "unit": "%"}, {"measurement": "MIC TP10 (B), MICB", "setting": "[3]", "result": 12.5, "unit": "µM"}, {"measurement": "MIC TP10 (B), MICB", "setting": "S.aureus MRSA N315", "result": 6.3, "unit": "µM"}, {"measurement": "MIC TP10 (B), MICB", "setting": "S.aureus MRSA 12673", "result": 6.3, "unit": "µM"}, {"measurement": "MIC", "setting": "[4]", "result": "12.5 ± 3.4", "unit": "µM"}, {"measurement": "MIC", "setting": "[5]", "result": "12.5 ± 2.2", "unit": "µM"}, {"measurement": "MIC", "setting": "S. aureus MRSA 12673", "result": "6.3 ± 1.6", "unit": "µM"}, {"measurement": "MIC", "setting": "[6]", "result": "12.5 ± 3.2", "unit": "µM"}, {"measurement": "MIC", "setting": "S. aureus MRSA N315", "result": "6.3 ± 1.3", "unit": "µM"}]}
